Results taken from patent US20170327598A1, “SINGLE DOMAIN ANTIBODIES DIRECTED AGAINST INTRACELLULAR ANTIGENS” (SINGH MOLECULAR MEDICINE, LLC, priority 2014, published 2017).
Several values for one entry are separate records, joined by “and”; a condition that tells them apart may be missing. Identical values can stand only once. Numbered stars: 1 amine (or outer) side, 2 acyl side, 3 side chain; on linkers, the order of the positions; unused ones are H or OH. Bridge positions count the residues as written; N and C are the ends. Square brackets hold non-standard residues; d marks the D form. Peptide text beside a SMILES is read from it. I, II: the chains in the order shown. Actinocin(9to1) = Cc1c2oc3c(C)ccc(C(=O)[*:1])c3nc-2c(C(=O)[*:2])c(N)c1=O; NMeV = CN[C@H](C(=O)O)C(C)C; Sar = CNCC(=O)O

System: L929 cells
Assay: Percent toxicity of control wells in L929 cells
Assay type: cell-based, mouse
Conditions: Actinomycin D only (no TNFα), sample replicates

`Cc1c2oc3c(C)ccc(C(=O)N[C@@H]4C(=O)N[C@H](C(C)C)C(=O)N5CCC[C@H]5C(=O)N(C)CC(=O)N(C)[C@@H](C(C)C)C(=O)O[C@@H]4C)c3nc-2c(C(=O)N[C@@H]2C(=O)N[C@H](C(C)C)C(=O)N3CCC[C@H]3C(=O)N(C)CC(=O)N(C)[C@@H](C(C)C)C(=O)O[C@@H]2C)c(N)c1=O` [Actinomycin D] (I: T[dV]P[Sar][NMeV] / II: T[dV]P[Sar][NMeV]; ester I:1-I:C, II:1-II:C; linker I:N-II:N via Actinocin(9to1)) was tested, and the “% Toxicity” value (Assay 1) was 18.6% and 5.4% and 2.3% and 3.5% and 0% (8×) and the “% Toxicity” value (Assay 2) was 2.3% and 0% (4×) and 10.4% and 0.4%.
